# Assay results reported in a melting point compilation (Tetko et al.; mined from patent text by program, amines drawn as free bases though some values may be those of a salt).
row,melting point,Compound
1,135 to 137 °C,CCOC(=O)c1c2ccc(CC(=O)N(OC)C3COC(C)(C)O3)ccc-2c(C(=O)OCC)c1N (stereo unspecified)
2,64 to 66 °C,COc1cc(Oc2cccc(OC(F)(F)F)c2)nc(C(=O)O)c1
3,113 to 120 °C,CCCCCCC(C(=O)O)N1Cc2cc(-c3ccccc3-c3nn[nH]n3)ccc2N1 (stereo unspecified)
4,132 °C,O=C(/C=C/[C@@H]1[C@H]2CC(=O)O[C@H]2C[C@H]1OC(=O)c1ccccc1)COc1ccccc1
5,88 to 89 °C,CCCc1ccc2nnc(C(=O)OCC)cc2c1
6,94 to 96 °C,CC(C)N(C)c1nccc(Oc2ccc(NC(=O)c3cc(F)cc(N4CCOCC4)c3)c3ccccc23)n1
7,130 to 132 °C,CCCCC(=O)N(Cc1ccc(-c2ccccc2S(=O)(=O)N=CN(C)C)cc1)C(C#N)C(=O)OCC (stereo unspecified)
8,195 °C,C=C(c1ccc(C(=O)O)s1)c1cc2cc(C(F)(F)F)ccc2n1S(=O)(=O)c1cccc(C(C)(C)C)c1
9,100 to 102 °C,O=C(NCCN1CCCC1)N1CCN(c2ccc(F)cc2)CC1
10,> 300 °C,O=C(O)c1[nH]c(=O)c2ccccc2c1-c1ccccc1
11,74 °C,COC(=O)c1cccnc1C(=O)c1ccccc1
12,100 to 102 °C,COCCN(CC1=CCC(N)(Oc2ccccc2)C=C1)C(=O)C(Cl)Cl (stereo unspecified)
13,178 to 179 °C,CC(=O)Oc1ccc(-c2c3ccccc3c(Br)c3sc4ccccc4c23)cc1OC(C)=O
14,191 to 193 °C,CCCCN(CCCC)c1ccc(C=Cc2ccc(C=CC3=C(C#N)C(=C(C#N)C#N)OC3(C)C(F)(F)F)s2)c(OC)c1 (stereo unspecified)
15,82 to 82.8 °C,Cc1cc(C(=O)N2CCCC(C)C2)ccc1[N+](=O)[O-] (stereo unspecified)
16,134 to 136 °C,CN(O)C(=O)c1ccc(OCCOc2ccccc2)cc1
17,138 to 140 °C,C=Cc1nn(Cc2ccc(C(=O)OC)cc2OC)c2cc(C(=O)NCC3CCCC3)ccc12
18,147 to 148 °C,CCOC(=O)C(C)(C)c1ccc(N[C@@H](CCC(N)=O)C(=O)O)cc1
19,76 to 78 °C,CCOC(=O)CCCn1cc(-c2cccnc2)c2cc([N+](=O)[O-])ccc21
20,145 to 146 °C,COC(=O)c1oc2c(sc3ccccc32)c1OC
21,132 to 133 °C,COc1ccc(C(=O)c2c(N)sc(C)c2C)cc1
22,82 to 84 °C,CON=C(C)c1cccc(Nc2nc(OC)cc(OC)n2)c1C(=O)OC
23,60 to 63 °C,CC(C)(CF)C(=O)C(Oc1ccc(Cl)cc1)n1cncn1 (stereo unspecified)
24,50 °C,CC(CC(=O)O)Nc1cccc(Cl)c1 (stereo unspecified)
25,35 to 37 °C,CCCN(CCC)C(=O)CCC(=O)O
26,117 to 120 °C,CCCCc1c(C(=O)OCC)cc(O)c2ccccc12
27,82 to 83 °C,COc1ccc(C(=O)C#CCO)c(OC)c1OC
28,146 to 149 °C,CNC(=O)CN(C)Cc1ccc(CCn2cnc3cc(-c4ccc(Cl)cc4)sc3c2=O)cc1

row,melting point,Compound
1,165 °C,COc1cccc2c1C(=CC(=O)c1ccccc1)OC2=O
2,120 to 121 °C,CCN1CCCC1CNC(=O)c1c(OC)c(Cl)cc(Cl)c1OC (stereo unspecified)
3,215 to 216 °C,COc1ccc(C2=NN(C3CCN(CC(N)=O)CC3)C(=O)C(C)(C)C2)c2c1OC(C)(C)C2
4,64 to 66 °C,COc1cc(C(C)=O)ccc1OC/C=C\CCl
5,123 to 126 °C,CCc1nn(C2CCCC2)c2cc(C(=O)NCCc3ccncc3)ccc12
6,182 to 184 °C,CCOC(=O)COc1ccc2cc(S(N)(=O)=O)sc2c1
7,207 to 215 °C,CN(C)S(=O)(=O)n1c(N)nc2ccc(C(=CCl)c3ccccc3)cc21
8,141 to 142 °C,CC(=O)Nc1ccc(OC(C)(C)C(=O)c2ccccc2)cc1
9,160 to 167 °C,COCc1c(C(=O)OC(C)(C)C)ncc2[nH]c3ccc(OCc4ccccc4)cc3c12
10,97 to 98 °C,C[C@H]1CCCN(C(=O)Cc2ccc(Cl)c(Cl)c2)[C@H]1C=O (relative stereo)
11,137 to 138 °C,C[C@](N)(Cc1ccccc1)C(=O)O
12,204 to 206 °C,CS(=O)(=O)c1ccc(C(=O)O)c([N+](=O)[O-])c1
13,190 °C,CN1CCOc2ccc(/C=C/C(=O)O)cc21
14,143 to 146 °C,CCCCCCCS(=O)(=O)c1nn2c(=O)c(C)c(F)nc2s1
15,143 to 145 °C,N#CC(C(=O)OC1CCCCC1)=C1Nc2ccccc2O1
16,95 °C,CC(C)(C)c1ccc(CNC(=O)NCc2ccc(NS(C)(=O)=O)c(F)c2)cc1
17,170 to 173 °C,COC(=O)[C@H](Cc1ccc(-c2c(C)cc(C(F)(F)F)n(C)c2=O)cc1)NC(=O)c1c(Cl)cccc1Cl
18,146 to 148 °C,CCOC(=O)C1CCn2c1cc(C)c2C(=O)c1ccc2n1CCS2 (stereo unspecified)
19,120 to 122 °C,CCCCC(=O)N(CCOC)Cc1ccc(-c2ccccc2-c2nnn[nH]2)cc1
20,175 to 176 °C,CNC(=S)N(O)C(C)c1cc(C(C)(C)C)c(O)c(C(C)(C)C)c1 (stereo unspecified)
21,165 °C,CC1(C)Oc2ccc(C#N)cc2[C@@H](NC(=O)c2ccccn2)[C@@H]1O (relative stereo)
22,182 to 184 °C,COC(=O)[C@]12OC(=O)C[C@H]1S[C@@H]1[C@H](NC(=O)COc3ccccc3)C(=O)N12
23,298 to 300 °C,CCCNC(=O)NCc1cccc2c1CN(C1CCC(=O)NC1=O)C2=O (stereo unspecified)
24,216 to 221 °C,O=C(O)C1Cc2c(cccc2-c2ccccc2)CN1C(=O)C(c1ccccc1)c1ccccc1 (stereo unspecified)
25,108 to 110 °C,CCCC(=O)Nc1ccn(C2OC(CO)C(O)C2O)c(=O)n1 (stereo unspecified)
26,306 to 308 °C,Nc1ccc2c(c1)C(=O)N(c1cccc(C(=O)O)c1)C2=O
27,120 to 121 °C,CCOC(=O)c1cccc(CNC(=O)CCCCCNC(=O)OC(C)(C)C)c1O

# Second part, the molecule before the results:
row,Compound,melting point
1,CC(C)Oc1nc(C#N)c(C#N)nc1Cl,48.5 to 50 °C
2,Nc1c(-c2ccc(-c3nnco3)cc2)nnn1-c1ccc(C(F)(F)F)cc1F,185 to 186 °C
3,Cc1cc(C(C)(C)C)c(O)c2[nH]c(Cc3ccccc3)nc12,226 to 228 °C
4,O=[N+]([O-])C=C1NCCN1Cc1ccc(F)nc1,139 to 142 °C
5,O=c1cc(-c2ccccc2F)oc(N2CCOCC2)c1,137 to 138 °C
6,CON(C)C(=O)Nc1ccc(Oc2ccc3ccccc3c2)c(C(F)(F)F)c1,129 to 130 °C
7,CN1CCC23CC(=O)CCC2(O)C1Cc1ccccc13 (stereo unspecified),143 to 144 °C
8,O=C(Nc1cccnc1)c1cc2ccncc2[nH]1,270 to 290 °C
9,C#CCOc1cc(-n2nc3n(c2=O)CCCN3)c(F)cc1Cl,172 to 174 °C
10,Oc1ccc(Oc2ncc(Cl)cc2F)cc1,90 to 92 °C
11,COc1cc2c(cc1OC)CN(c1cc(N)c3cc(OC)c(OC)cc3n1)CC2,226 to 227 °C
12,COc1cc(N)c(Cl)cc1-c1noc(C2CCN(CC3CCCO3)CC2)n1 (stereo unspecified),148 °C
13,CN1C(=O)C2(COc3cc4c(cc32)OCCO4)c2ccccc21 (stereo unspecified),152 to 154 °C
14,Cc1ccc(C(=O)Nc2ccc(C)c(-c3nc(OC(C)C)nc4c3CNC(=O)N4c3c(F)cccc3F)c2)cc1F,254 to 255 °C
15,c1ccc(CN2CCN(Cc3c[nH]c4ncccc34)CC2)cc1,153 °C
16,O=C(Oc1ccccc1N1c2ccccc2S(=O)(=O)c2ccccc21)c1ccccc1,228 to 232 °C
17,Fc1cccc(F)c1-c1nc(COc2ccc(Oc3ccc(C(F)(F)F)cc3)cc2)no1,83 to 84 °C
18,CC1(C)Oc2ccc(I)cc2[C@@H](N2Cc3ccccc3C2=O)[C@@H]1O (relative stereo),224 to 228 °C
19,CN1CCc2c(cccc2NC(=O)c2ccccc2Br)C1,206 to 208 °C
20,NC(=O)NC1CCC(c2ccccc2-n2nc(C(F)(F)F)cc2C(F)(F)F)CC1 (stereo unspecified),185 to 188 °C
21,C/C(=C(\C#N)C(N)=S)N1CCCN(c2cccc(Cl)c2)CC1,133 to 134 °C
22,COc1cccc(Nc2ccnc(Nc3cc(C)c(OC)c(OC)c3)n2)c1,66 to 68 °C
23,CCOC(=O)c1cc2c(s1)-n1c(C)nnc1CN=C2c1ccccc1Cl,148 to 150 °C

row,Compound,melting point
1,Cc1cccc(-c2n[nH]cc2-c2ccc(F)c(-c3ccc(NC(=O)NN4CCOCC4)cc3)c2)n1,131 to 133 °C
2,Cc1nccn1-c1nc(-c2ccc(Cl)c(Cl)c2)c(CCCO)o1,140 to 141 °C
3,O=c1[nH]ncc2[nH]c(-c3ccc(OC(F)F)c(OC4CC4)c3)c(Cc3ccccc3)c12,215 to 217 °C
4,O=Cc1c[nH]c2ccc(-c3ccc4[nH]cnc4c3)cc12,> 280 °C
5,O=c1ccn(-c2cccc(C(F)(F)F)c2)nc1-c1ccnn1-c1ccccc1,156 to 157 °C
6,O=C(Cc1c(-c2ccccc2)c2cc3c(cc2oc1=O)C(=O)OC3)Nc1ccc(F)cc1C(F)(F)F,253 to 254 °C
7,CC(=O)c1ccc(-c2ccc(F)cc2)c(N)c1,88 to 91 °C
8,O=C1CCCCC1C(C[N+](=O)[O-])c1ccccc1Cl (racemic),107 to 108 °C
9,CC1(C)Cc2sccc2C=[N+]1[O-],130 to 131 °C
10,Cc1cccc2nc(CCl)cn12,120 to 121 °C
11,NS(=O)(=O)c1ccc([C@H]2[C@H](C(=O)Nc3ccc(C(F)(F)F)cc3Cl)C23CCCC3)cc1 (relative stereo),111 to 113 °C
12,O=C(c1cccnc1)c1cc2cc(Br)ccc2s1,147 to 148 °C
13,O=[N+]([O-])c1ccc(C2OCCc3cc4c(cc32)OCO4)cc1 (stereo unspecified),149 to 150 °C
14,Cc1nc2c3c(c(C(N)=O)cc2n1C)CCC1(Cc2ccccc2C1)N3,272 to 273 °C
15,Cc1c(C)n(CC2CC2C)c2c(OCc3ccc(F)cc3F)nncc12 (stereo unspecified),101 to 102 °C
16,COc1cc2cc(CO)nc(-c3ccc([N+](=O)[O-])cc3)c2cc1OC,260 to 263 °C
17,C#CC(C)Oc1cc(-c2nn3c(c2Cl)CCCC3)c(F)cc1Cl (stereo unspecified),116 to 120 °C
18,c1ccc2cc(N3CCC4(CCNCC4)CC3)ccc2c1,158 to 162 °C
19,CC(C)NC(=C1Sc2ccccc2C1=O)c1ccccc1,112 to 113 °C
20,FC(F)(F)c1cccc(-c2ccnc3ncnn23)c1,158 to 160 °C
21,COc1ccc(C=Cc2oc3ccc(C#N)cc3c2C(C)=O)cc1,190 to 191 °C
22,Cn1ncc2c(=O)n3ccsc3nc21,220 to 221 °C
23,COc1cc2c(cc1OC)NC(=O)CCC2,153 to 156 °C
